Results: patent US10968214B2, “KRas G12C inhibitors” (Eli Lilly and Company, priority 2018, dated 2021)
Where two headings read alike, the source gives them in different places.

How the values were obtained:
Kyse-410 = test: CellTiterGlo Cell Proliferation Assay, Kyse-410; type: cell-based; conditions: Homo sapiens, KRas G12C, Esophagus, 96 hr
Experimental: (§1) A panel of tumor cell lines harboring KRas G12C or other KRas mutations are collected (Table 6). All cell lines are from ATCC or other sources indicated.
(§2) Typically cells are cultured in RPMI1640 or Dulbecco's modified Eagle's medium (DMEM, GIBCO) supplemented with 10% FBS (GIBCO, Invitrogen). For 2D culture cells (4×10^3/well) maintained in growth medium described above, are plated onto 96 well tissue culture plates Corning® Cat. 3603) a day before the treatment. For 3D culture 8000 cells/well are seeded onto 96 well ultra-low attachment tissue culture plates (Corning, #3474). The cells are treated compound for 96 hr, and then are analyzed for viability using the CellTiterGlo® Luminescent Cell Viability Assay® (Promega #G7572 for 2D and Promega #G9683 for 3D cultures) according to manufacturer's instructions and an EnVision™ plate reader. Nonlinear regression and sigmoidal dose-response curves are used to calculate the half maximal inhibitory concentration (IC50) with GraphPad Prism 4® software.

H358 xenograft = test: Anti-tumor growth activity, lung cancer H358 xenograft mouse model; type: in vivo; conditions: for Tumor Growth Inhibition (%) or Regression (−%): 28 Day, negative = regression
Experimental: To evaluate in vivo target inhibition and anti-tumor efficacy of a compound, Human lung cancer cells, H358 or H2122 are implanted into nude mice xenograft tumor models. Either H358 or H2122 cells (10×10^6 in a 1:1 Matrigel® mix, 0.2 mL total volume) are implanted by subcutaneous injection in hind leg of nude female mice (Harlan Laboratories). A total of 5 mice each group are used for efficacy study, and a total of 3-4 mice each group are used for target engagement and PD study. Treatment is initiated with oral administration (gavage) of a test compound or vehicle (20% Captisol®, 25 mM phosphate, pH 2.0 in 0.2 mL volume when the tumor size reaches approximately […]. Tumor growth and body weight are monitored over time to evaluate efficacy and signs of toxicity. Bidimensional measurements of tumors are performed twice a week and tumor volumes are calculated based on mid-axis length and mid-axis width. Tumor volume data are transformed to a log scale to equalize variance across time and treatment groups. The log volume data are analyzed with a two-way repeated measures analysis of variance by time and treatment using the mixed procedures in SAS software (version 8.2). The correlation model for the repeated measures is spatial power. Treated groups are compared to the control group at each time point. The mixed procedure is also used separately for each treatment group to calculate adjusted means and standard errors at each time point. Both analyses account for the autocorrelation within each animal. The adjusted means and standard errors are plotted for each treatment group versus time.
H358 lung tumor cells (10×10^6) are implanted by subcutaneous injection in hind leg of nude female mice (Taconic Biosciences).

[1] = test system: phosphorylation of p-ERK1/2 in H358 cells; test: H358 Cellular Phospho-ERK AlphaLISA; type: cell-based, Human; conditions: Homo sapiens, NCI-H358, 2 h
Experimental: This assay is used to measure the ability of test compounds to inhibit the phosphorylation of p-ERK1/2, a downstream effector of KRas in Human lung cancer cells H358 (ATCC CRL-5807). Briefly, the AlphaLISA® SureFire® Ultra™ p-ERK 1/2 (Thr202/Tyr204) assay is a sandwich immunoassay for quantitative detection of phospho-ERK 1/2 (phosphorylated on Thr202/Tyr204 in ERK1, or Thr185/Tyr187 in ERK2) in cellular lysates using Alpha Technology (Perkin Elmer Cat #ALSU-PERK-A50K).
H358 cells are plated at 40K cells per well in 100 μL media (RPMI 1640, GIBCO Cat #22400-071) containing 10% FBS (GIBCO Cat #: 10082-147) in a 96 well plate (Costar #3596) and are incubated overnight in humid trays at 37° C., 5% CO2. The next morning, 10 μL of serially-diluted (3-fold) test compounds (50 μM top concentration) and 10 uL of controls (Maximum signal wells: 5% DMSO and Minimum signal wells: 2 μM of N-(3-{3-cyclopropyl-5-[(2-fluoro-4-iodophenyl)amino]-6,8-dimethyl-2,4,7-trioxo-3,4,6,7-tetrahydropyrido[4,3-D]pyrimidin-1(2H)-yl}phenyl)acetamide (trametinib, as a positive control) are added to the cell plate and incubated for 2 hr in humid trays at 37° C./5% CO2. Lysis Buffer is prepared at RT containing a protease and phosphatase inhibitor cocktail. Culture medium is removed by inverting and shaking the cell plate in the sink and then blotting onto a paper towel. Lysis buffer is added to the cell plate (50 μL per well) and the plate is incubated at RT for 10 min on a shaker. For p-ERK detection, acceptor beads are diluted into a suspension mixture with buffer. Using a Starlett liquid handler, 5 μL of acceptor beads and 2 μL of cell lysate are transferred as a single-step in-tip dilution to a 384 well assay plate. The assay plate is sealed with foil and is incubated at RT for 2 hrs. Donor beads are diluted into a suspension mixture with buffer. Using the Starlet, 5 μL of donor beads are added to the assay plate that is then sealed, wrapped with foil. The plate is incubated at RT for 2 hrs in the dark. The assay plate is then read on an EnVision™ Plate Reader (Perkin Elmer) using a luminescence program.
The signal is converted to percent inhibition using the following equation: % Inhibition=100−[(Test Compound Signal−Median Minimum Signal)/(Median Maximum Signal−Median Min Signal)×100]. The Maximum signal is a control well without inhibitor.

HCC44 xenograft = test: Anti-tumor growth activity, HCC44 lung xenograft; type: in vivo; conditions: 28 Day, negative = regression
H441 = test: CellTiterGlo Cell Proliferation Assay, H441; type: cell-based; conditions: Homo sapiens, NCI-H441, KRas G12V, lung, 96 hr
Experimental: as §1, §2

SW837 = test: CellTiterGlo Cell Proliferation Assay, SW837; type: cell-based; conditions: Homo sapiens, KRas G12C, Rectum, 96 hr
Experimental: as §1, §2

H1975 = test: CellTiterGlo Cell Proliferation Assay, H1975; type: cell-based; conditions: Homo sapiens, NCI-H1975, KRas wild type, lung, 96 hr
Experimental: as §1, §2

H1792 = test: CellTiterGlo Cell Proliferation Assay, H1792; type: cell-based; conditions: Homo sapiens, NCI-H1792, KRas G12C, Lung, 96 hr
Experimental: as §1, §2

[2] = read-out: IC50 (μM) in 2 D cell proliferation
[3] = read-out: IC50 (μM) in 3 D spheroid cell proliferation

- IC50 ([1]; read-out: pERK): 0.00566 µM
- IC50 ([1]; read-out: relative IC50): 0.0057 µM
- IC50 (H441; [2]): 16.5 µM
- IC50 (H441; [3]): 7.89 µM
- IC50 (SW837; [2]): 0.169 µM
- IC50 (SW837; [3]): 0.126 µM
- IC50 (H1975; [2]): 18.7 µM
- IC50 (H1975; [3]): 6.2 µM
- IC50 (H1792; [2]): 3.93 µM
- IC50 (H1792; [3]): 3.84 µM
SMILES: C=CC(=O)N1CCN(c2ncnc3c(F)c(-c4ccc(F)c5sc(N)nc45)c(Cl)cc23)CC1 [Example 1, 1-{4-[7-(2-Amino-7-fluoro-1,3-benzothiazol-4-yl)-6-chloro-8-fluoroquinazolin-4-yl]piperazin-1-yl}prop-2-en-1-one]
- IC50 (Kyse-410; [2]): 2.94 µM
- IC50 (Kyse-410; [3]): 0.471 µM
- Tumor Growth Inhibition (%) or Regression (−%) (H358 xenograft; H358 Lung, 10 mg/kg BID, oral): −1.98%
- Tumor Growth Inhibition (%) or Regression (−%) (H358 xenograft; H358 Lung, 10 mg/kg QD, oral): 42.7%
- Tumor Growth Inhibition (%) or Regression (−%) (H358 xenograft; H358 Lung, 30 mg/kg BID, oral): −74.35%
- Tumor Growth Inhibition (%) or Regression (−%) (H358 xenograft; H358 Lung, 30 mg/kg QD, oral): −33.98%
- In Vivo Anti-Tumor Activities (H358 xenograft; H358 Lung, Example 1 30 mg/kg QDx28): −33.4
- animal body weight loss (H358 xenograft; H358 xenograft mice, 10 or 30 mg/kg once or twice daily for 28 days, oral): No significant animal body weight loss was observed
- Tumor Growth Inhibition (%) or Regression (−%) (HCC44 xenograft; 15 mg/kg BID): 93.4%
- Tumor Growth Inhibition (%) or Regression (−%) (HCC44 xenograft; 30 mg/kg BID): −16.5%
- Tumor Growth Inhibition (%) or Regression (−%) (HCC44 xenograft; 30 mg/kg QD): 85.4%
